# Experimental data taken from the supplement of paper PMC10307832.
# Compound: COCC[n+]1c2c(n(Cc3cnccn3)c1C)C(=O)c1ccccc1C2=O [YM155] + Nc1nc2[nH]cc(CCc3ccc(C(=O)N[C@@H](CCC(=O)O)C(=O)O)cc3)c2c(=O)[nH]1 [Pemetrexed] (partner 0.2 µM)
# Assay: relative viability (nuclei count vs DMSO), 5 days (fraction); higher = more cells survive
# Settings: first compound 0.06325 µM
# In short: (§1)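 Values are medians from duplicate plates. Each reflects relative viability, defined as the nuclei count of treated wells over that of vehicle wells. Lung cancer cell lines in 1536-well plates were pin-tool dosed one day after seeding with one drug alone or with a fixed anchor-drug dose plus five library-drug doses (not always all listed) in √10 steps, then fixed, stained and imaged at 4× after 5 days.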
row,Cell Line,relative viability
1,NCI-H2170,0.264
2,CAL-12T,0.569
3,LK-2,0.364
4,HOP-62,0.289
5,PC-14,0.141
6,NCI-H1993,0.444
7,NCI-H2405,0.452
8,NCI-H3122,0.186
9,A-427,0.762

# Compound: COCC[n+]1c2c(n(Cc3cnccn3)c1C)C(=O)c1ccccc1C2=O [YM155] + CC1(C)CCC(c2ccc(Cl)cc2)=C(CN2CCN(c3ccc(C(=O)NS(=O)(=O)c4ccc(N[C@H](CCN5CCOCC5)CSc5ccccc5)c(S(=O)(=O)C(F)(F)F)c4)cc3)CC2)C1 [Navitoclax] (partner 0.5 µM)
# Assay: as above
# Settings: first compound 0.002 µM
# In short: as §1
row,Cell Line,relative viability
1,SK-MES-1,1.3
2,NCI-H1651,1.22
3,UMC-11,0.293
4,NCI-H1355,0.947
5,H3255,0.491
6,NCI-H647,0.947
7,LCLC-97TM1,0.319
8,LXF-289,0.94
9,LU99A,0.753
10,NCI-H2023,1.04
11,NCI-H2228,1.03
12,NCI-H1437,1.07
13,NCI-H1395,1.4
14,NCI-H2009,1.16
15,HCC-366,1.08
16,NCI-H1915,0.804
17,NCI-H2347,0.756
18,NCI-H1734,0.867

row,Cell Line,relative viability
1,HCC-78,0.79
2,COR-L 105,0.672
3,HCC-15,0.66
4,HARA,1.11
5,NCI-H1975,1.09
6,NCI-H1944,1.05
7,NCI-H2126,0.866
8,EMC-BAC-2,1.12
9,SK-LU-1,1.05
10,NCI-H2170,0.545
11,CAL-12T,1.22
12,LK-2,0.776
13,HOP-62,0.97
14,PC-14,1.02
15,NCI-H1993,0.968
16,NCI-H2405,0.891
17,NCI-H3122,0.969
18,A-427,0.984

# Same assay, conditions: first compound 0.006325 µM
row,Cell Line,relative viability
1,SK-MES-1,1.36
2,NCI-H1651,0.995
3,UMC-11,0.332
4,NCI-H1355,1.08
5,H3255,0.523
6,NCI-H647,1.17
7,LCLC-97TM1,0.394
8,LXF-289,0.949
9,LU99A,0.729
10,NCI-H2023,1.07
11,NCI-H2228,0.487
12,NCI-H1437,1.08
13,NCI-H1395,0.799
14,NCI-H2009,1.13
15,HCC-366,1.04
16,NCI-H1915,0.79
17,NCI-H2347,0.779
18,NCI-H1734,0.88

row,Cell Line,relative viability
1,HCC-78,0.717
2,COR-L 105,0.892
3,HCC-15,0.673
4,HARA,1.14
5,NCI-H1975,0.97
6,NCI-H1944,0.983
7,NCI-H2126,0.877
8,EMC-BAC-2,1.24
9,SK-LU-1,0.559
10,NCI-H2170,0.572
11,CAL-12T,1.16
12,LK-2,0.855
13,HOP-62,0.969
14,PC-14,1.06
15,NCI-H1993,0.951
16,NCI-H2405,0.602
17,NCI-H3122,1.04
18,A-427,0.88

# Same assay, conditions: first compound 0.02 µM
row,Cell Line,relative viability
1,SK-MES-1,1.28
2,NCI-H1651,1.08
3,UMC-11,0.29
4,NCI-H1355,1.08
5,H3255,0.487
6,NCI-H647,0.855
7,LCLC-97TM1,0.391
8,LXF-289,0.957
9,LU99A,0.756
10,NCI-H2023,0.987
11,NCI-H2228,0.956
12,NCI-H1437,1.09
13,NCI-H1395,1.53
14,NCI-H2009,1.06
15,HCC-366,0.989
16,NCI-H1915,0.792
17,NCI-H2347,0.83
18,NCI-H1734,0.835

row,Cell Line,relative viability
1,HCC-78,0.767
2,COR-L 105,0.783
3,HCC-15,0.72
4,HARA,1.13
5,NCI-H1975,1.08
6,NCI-H1944,1.05
7,NCI-H2126,0.871
8,EMC-BAC-2,1.09
9,SK-LU-1,1.27
10,NCI-H2170,0.524
11,CAL-12T,1.16
12,LK-2,0.85
13,HOP-62,0.979
14,PC-14,0.997
15,NCI-H1993,0.847
16,NCI-H2405,0.699
17,NCI-H3122,1.02
18,A-427,0.91

# Same assay, conditions: first compound 0.06325 µM
row,Cell Line,relative viability
1,SK-MES-1,1.07
2,NCI-H1651,0.606
3,UMC-11,0.375
4,NCI-H1355,1.04
5,H3255,0.525
6,NCI-H647,0.442
7,LCLC-97TM1,0.376
8,LXF-289,0.87
9,LU99A,0.677
10,NCI-H2023,0.261
11,NCI-H2228,0.857
12,NCI-H1437,1.01
13,NCI-H1395,1.55
14,NCI-H2009,0.567
15,HCC-366,0.843
16,NCI-H1915,0.822
17,NCI-H2347,0.46
18,NCI-H1734,0.876

row,Cell Line,relative viability
1,HCC-78,0.942
2,COR-L 105,0.501
3,HCC-15,0.706
4,HARA,1.14
5,NCI-H1975,0.626
6,NCI-H1944,1.17
7,NCI-H2126,0.875
8,EMC-BAC-2,1.13
9,SK-LU-1,0.418
10,NCI-H2170,0.692
11,CAL-12T,0.299
12,LK-2,1.09
13,HOP-62,1.11
14,PC-14,0.982
15,NCI-H1993,0.795
16,NCI-H2405,0.226
17,NCI-H3122,1.05
18,A-427,0.997
